Results reported in patent US9624229B2, “Pyrimidine-2-amine compounds and their use as inhibitors of JAK kinases” (Rigel Pharmaceuticals, Inc., priority 2008, dated 2017).

Target: Ba/F3 V617F cells (Homo sapiens, UniProt O60674, V617F, cells depend on it)
Test: Proliferation assay (Cell Titer-Glo, 72 h) utilizing Ba/F3 V617F cells
Format: cell-based, mouse
Settings: Ba/F3 V617F cells, proliferation, level of activity given as class symbol, read-out: IC50 (the source's name)
How it was run: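 Readout is CellTiter-Glo luminescence after 72 h at 37 °C, giving IC50. Cells: Ba/F3 V617F, 1×10^5 cells/mL in RPMI with 10% FBS, treated in duplicate with 3-fold dilution series made from 5 mM DMSO stock, 1:250 in 5% FBS medium, added at 2×.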

Ba/F3 V617F cells, sequence (O60674 whole entry V617F): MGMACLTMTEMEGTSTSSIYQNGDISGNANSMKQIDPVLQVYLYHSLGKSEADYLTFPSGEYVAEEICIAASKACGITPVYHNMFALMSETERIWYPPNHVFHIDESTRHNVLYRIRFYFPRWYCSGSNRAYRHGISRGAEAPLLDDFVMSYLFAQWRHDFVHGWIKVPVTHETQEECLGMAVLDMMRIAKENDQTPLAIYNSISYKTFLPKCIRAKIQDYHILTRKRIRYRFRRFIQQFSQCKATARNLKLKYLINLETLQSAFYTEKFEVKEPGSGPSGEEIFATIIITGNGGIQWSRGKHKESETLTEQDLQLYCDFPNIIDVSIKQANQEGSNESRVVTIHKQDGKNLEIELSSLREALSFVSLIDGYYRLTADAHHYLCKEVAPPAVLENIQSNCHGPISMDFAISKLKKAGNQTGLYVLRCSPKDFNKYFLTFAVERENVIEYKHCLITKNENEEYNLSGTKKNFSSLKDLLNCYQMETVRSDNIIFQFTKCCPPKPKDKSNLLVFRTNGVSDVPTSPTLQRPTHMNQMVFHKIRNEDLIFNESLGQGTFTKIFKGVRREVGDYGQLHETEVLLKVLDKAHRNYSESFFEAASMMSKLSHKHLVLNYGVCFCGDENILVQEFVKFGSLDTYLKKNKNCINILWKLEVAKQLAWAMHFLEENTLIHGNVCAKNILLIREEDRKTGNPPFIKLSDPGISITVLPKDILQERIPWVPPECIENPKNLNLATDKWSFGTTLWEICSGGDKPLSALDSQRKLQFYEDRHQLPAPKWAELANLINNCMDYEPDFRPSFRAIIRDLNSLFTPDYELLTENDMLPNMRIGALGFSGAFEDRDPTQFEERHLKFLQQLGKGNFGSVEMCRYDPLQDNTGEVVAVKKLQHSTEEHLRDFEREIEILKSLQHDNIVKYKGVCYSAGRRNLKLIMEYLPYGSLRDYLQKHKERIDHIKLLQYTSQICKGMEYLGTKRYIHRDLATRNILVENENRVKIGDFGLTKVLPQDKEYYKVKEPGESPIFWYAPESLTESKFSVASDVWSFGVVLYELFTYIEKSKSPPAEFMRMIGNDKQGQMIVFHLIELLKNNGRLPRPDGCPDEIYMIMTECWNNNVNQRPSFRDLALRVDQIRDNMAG

| SMILES | GI50 [nM] |
| --- | --- |
| Cc1cc(Nc2nccc(-c3ccc(N4CCOCC4)nc3)n2)ccc1N1C[C@@H]2C[C@H]1CN2C1CC1 [compound 254, 4-(6-(morpholin-4-yl)pyridin-3-yl)-N-(3-methyl-4-((1S,4S)-5-cyclopropyl-2,5-diazabicyclo[2.2.1]heptan-2-yl)phenyl)pyrimidin-2-amine] | < 1000 |
| Cc1cc(Nc2nccc(-c3ccc(N4C[C@@H](C)O[C@@H](C)C4)nc3)n2)ccc1N1C[C@@H]2C[C@H]1CO2 (relative stereo) [compound 201] | < 1000 |
| Cc1cc(Nc2nccc(-c3ccc4c(c3)SCC(=O)N4)n2)ccc1N1C[C@@H]2C[C@H]1CN2C [compound 274, 4-(3-oxo-3,4-dihydro-2H-benzo[b][1,4]thiazin-7-yl)-N-(3-methyl-4-((1S,4S)-5-methyl-2,5-diazabicyclo[2.2.1]heptan-2-yl)phenyl)pyrimidin-2-amine] | < 1000 |

Other lines, results leading:

| GI50 [nM] | SMILES |
| --- | --- |
| < 1000 | Cc1cc(Nc2nccc(-c3ccc(OC4CCOCC4)nc3)n2)ccc1N1C2CCC1CC(N1CCOCC1)C2 (stereo not drawn) [compound 285, 4-(6-(tetrahydropyran-4-yloxy)pyridin-3-yl)-N-(3-methyl-4-(3-(morpholin-4-yl)-8-azabicyclo[3.2.1]octan-8-yl)phenyl)pyrimidin-2-amine] |
| < 1000 | Cc1cc(Nc2nccc(-c3ccc(OC4CCOCC4)nc3)n2)ccc1N1C[C@@H]2C[C@H]1CN2C [compound 261, 4-(6-(tetrahydropyran-4-yloxy)pyridin-3-yl)-N-(3-methyl-4-((1S,4S)-5-methyl-2,5-diazabicyclo[2.2.1]heptan-2-yl)phenyl)pyrimidin-2-amine] |

Same assay, conditions: Ba/F3 V617F cells, proliferation, level of activity to inhibit JAK2, read-out: IC50 (the source's name)

| SMILES | GI50 [nM] |
| --- | --- |
| CCOC(C)c1ccc(-c2ccnc(Nc3ccc(N4C[C@@H]5C[C@H]4CN5C)c(F)c3)n2)cc1 (stereo partly drawn) [compound 182, 4-(4-(1-ethoxyethyl)phenyl)-N-(3-fluoro-4-((1S,4S)-5-methyl-2,5-diazabicyclo[2.2.1]heptan-2-yl)phenyl)pyrimidin-2-amine] | 1000 to 10000 |
| Cc1cc(Nc2nccc(-c3ccc4ncn(C)c4c3)n2)ccc1N1C[C@@H]2C[C@H]1CN2C [compound 107, 4-(1-methylbenzimidazol-6-yl)-N-(3-methyl-4-((1S,4S)-5-methyl-2,5-diazabicyclo[2.2.1]heptan-2-yl)phenyl)pyrimidin-2-amine] | < 1000 |
| CCN(CC)c1nc(-c2ccnc(Nc3ccc(N4C[C@@H]5C[C@H]4CN5C)c(F)c3)n2)cs1 [compound 164, 4-(2-(diethylamino)thiazol-4-yl)-N-(3-fluoro-4-((1S,4S)-5-methyl-2,5-diazabicyclo[2.2.1]heptan-2-yl)phenyl)pyrimidin-2-amine] | < 1000 |

Continued, values first:

| GI50 [nM] | SMILES |
| --- | --- |
| < 1000 | Cc1cc(Nc2nccc(-c3cnc4c(c3)OC(C)(C)C(=O)N4)n2)ccc1N1C[C@@H]2C[C@H]1CN2S(C)(=O)=O [compound 29, 4-(2,2-dimethyl-3-oxo-3,4-dihydro-2H-pyrido[3,2-b][1,4]oxazin-7-yl)-N-(3-methyl-4-((1S,4S)-5-(methylsulfonyl)-2,5-diazabicyclo[2.2.1]heptan-2-yl)phenyl)pyrimidin-2-amine] |
| 1000 to 10000 | Cc1cc(Nc2nccc(-c3cnn(-c4cccc(Cl)c4)c3)n2)ccc1N1C[C@@H]2C[C@H]1CN2C [compound 106, 4-(1-(3-chlorophenyl)-1H-pyrazol-4-yl)-N-(3-methyl-4-((1S,4S)-5-methyl-2,5-diazabicyclo[2.2.1]heptan-2-yl)phenyl)pyrimidin-2-amine] |

Same assay, conditions: inhibition of JAK2 activity, proliferation of Ba/F3 V617F cells, read-out: IC50 (the source's name)

| GI50 [nM] | SMILES |
| --- | --- |
| < 1000 | Cc1cc(Nc2nccc(-c3ccc4c(ccn4-c4ccncc4)c3)n2)cnc1N1C[C@@H]2C[C@H]1CN2C [compound 236, 4-(1-(pyridin-4-yl)-1H-indol-5-yl)-N-(5-methyl-6-((1S,4S)-5-methyl-2,5-diazabicyclo[2.2.1]heptan-2-yl)pyridin-3-yl)pyrimidin-2-amine] |
| < 1000 | Cc1cc(Nc2nccc(-c3ccc(N(C)C)nc3)n2)cnc1N1C[C@@H]2C[C@H]1CN2C [compound 61, 4-(6-(dimethylamino)pyridin-3-yl)-N-(5-methyl-6-((1S,4S)-5-methyl-2,5-diazabicyclo[2.2.1]heptan-2-yl)pyridin-3-yl)pyrimidin-2-amine] |
